Reference: patent publication US10471030B2, “Immunomodulatory and differentiating function selective retinoid and rexinoid compounds in combination with immune modulators for cancer immunotherapy” (Io Therapeutics, Inc., priority 2017, dated 2019)

How the values were obtained:
[1] = system: RARα; test: transactivation assay, agonist activity; format: cell-based; conditions: RARα versus RARβ, RARγ; FIG. 1
Excerpt: Transactivation assays employ expression plasmids encoding the full length receptors RARα, RARβ, and RAR ? . Reporter plasmids containing the herpes virus thymidine kinase promoter and the appropriate retinoic acid receptor response element (RAREs) are positioned upstream of an open coding region encoding firefly luciferase.

[2] = system: Naive CD4+ CD25− FoxP3− cells; test: Treg cell differentiation from naive T cells in vitro (FoxP3-GFP, flow cytometry); format: cell-based, mouse; conditions: 10 nM
Experimental: To determine whether a RARα agonist could affect T cell differentiation, T cells were incubated with a RARα agonist to determine its effect on Foxp3 expression. Naive CD4^+ CD25^− FoxP3^− cells were purified from a Foxp3-GFP mouse using flow cytometry by sorting and isolating based upon a GFP^− phenotype. These cells were activated polyclonally with αCD3 in vitro in the presence of IL-2 and TGF-β. These cells were then cultured in media with various concentrations of compound IRX5183 (a RARα agonist) and the expression of FoxP3-GFP was analyzed by flow cytometry. The RARα agonist compound IRX5183 enhanced differentiation of immunosuppressive Treg cells and inhibited differentiation of inflammatory TH17 cells from naïve T cells in vitro (Table 2).

[3] = system: MM H929 cell lines and MM CD138+ primary cells; test: mRNA expression of B cell and PC markers in MM cells, liquid or BM stroma co-culture (qRT-PCR); format: cell-based, human; conditions: 1 μM for 5 days
Experimental: (§1) 24-well plates were coated with 0.1% gelatin in PBS for 30 min at 37° C. The gelatin solution was removed, and the stromal cells were cultured overnight at a density of 5×10^4 cells/well to obtain a confluent monolayer. At that time, MM cell lines or primary MM cells (1×10^5 in 2 ml) were added to the stroma cultures. The stroma cocultures were incubated at 37° C. in RPMI containing 10% FCS, L-glutamine, and P/S, with or without AGN194310 (1 μM for 5 days), R115866 (1 μM for 5 days), IRX5183 (1 μM for 5 days), or BTZ (2.5 nM for 48 hr).
Total RNA was extracted using the RNeasy Mini Kit (QIAGEN) according to the manufacturer's instructions. cDNA was synthesized by reverse transcription using the iScript cDNA Synthesis Kit (Bio-Rad). qRT-PCR was performed with iTaq SYBR Green Supermix (Bio-Rad) using sequence specific primers. Gene expression was normalized to GAPDH, and relative quantification was calculated using ΔΔCt. All experiments were performed in duplicate and run on the Bio-Rad CFX96 machine.
The BM microenvironment (also called “niche”) limits PC differentiation by modulating retinoid signaling. A population of MM progenitors, phenotypically similar to B cells, is intrinsically resistant to BTZ and contributes to MRD and relapse. To investigate whether the BM niche plays a role in determining the phenotype of MM cells, the mRNA expression of B cell and PC markers in MM H929 cell lines (FIGS. 3A-D) and MM CD138+ primary cells (FIGS. 3E-H) was analyzed following co-culture with mouse BM stroma using human-specific primers. […] In contrast, co-culture of MM cells with BM stroma decreased the mRNA expression of B lymphocyte-induced maturation protein 1 (BLIMP1) and spliced X box-binding protein 1 (XBP1s) (FIG. 3B, C, F, G), which are critical mediators of PC differentiation.
The BM niche regulates hematopoietic stem cell (HSC) differentiation by expressing the retinoid-inactivating enzyme CYP26. CYP26 enzymes were highly expressed in BM mesenchymal cells, while their expression was barely detectable in MM cells. Since retinoid signaling promotes PC differentiation and potentiates Ig secretion, it was determined whether stromal CYP26 is responsible for inducing a B cell phenotype in MM cells. To this end, co-culture conditions were treated with the CYP26 inhibitor R115866 (R115) or the CYP26-resistant RA receptor α-selective (RARα-selective) retinoid IRX5183 (IRX).

[4] = system: MM cells; test: surface CD138 expression of MM cells (flow cytometry); format: cell-based, human; conditions: BM stromal cell co-cultures, 1 μM
Experimental: as §1
Following treatment, MM cells were collected, washed with PBS, and stained for 15 min at room temperature with phycoerythrin-conjugated (PE-conjugated) anti-CD138. Cells were washed to remove unbound antibody and evaluated in a FACSCalibur system (BD Biosciences). Stromal cells were identified by GFP expression, and viable cells were identified using 7-aminoactinomycin D (7-AAD). To calculate cell numbers, live GFP-cells were normalized to calibration beads.
Expression of CD138 is a hallmark of normal PC differentiation as well MM PCs.

[5] = system: OCI-AML3 cells; test: CFU experiments off and on stroma, OCI-AML3 cells; format: cell-based; conditions: 10^−6 M ATRA, IRX5183, or 10^−7 M AM80
Excerpt: Data across three independent experiments.

CC1(C)CCC(C)(C)c2c1cc(C(=O)Nc1cc(F)c(C(=O)O)c(F)c1)c(O)c2Cl [IRX5183]
agonist activity, activation of transcription [1]: specifically activates RARα | Treg cell Percent Differentiation (%) [2]: 90% | mRNA expression of BCL6, BLIMP1, XBP1s, CHOP markers ([3]; BM stroma co-cultures): restored all markers to levels comparable to those of liquid control conditions | expression of differentiation markers ([3]; liquid conditions (absence of stroma)): induced comparable changes, irrespective of the presence or absence of BM stroma | surface CD138 expression [4]: restored CD138 expression | clonogenic growth (CFU) [5]: decrease in clonogenic growth compared to control
